Measured values as given in US8039501B2, “Synephrine derivatives useful as anti-inflammatory agents” (Universiteit Gent, priority 2005, dated 2011).

What was measured:
MM1.S cell line = test: MTT test, cell viability of MM1.S cells; format: cell-based, human; conditions: Homo sapiens, MM1.S; 10^−4 M; 10% FCS; FIG. 4A; read-out: Inhibition of MM1.S cell viability
Experimental: (§1) The MTT test is a standard assay addressing cell toxicity of a compound. It is based on the principle that after 3-4 hours of cell incubation with MTT (3-(4,5-dimethylthiazole-2-yl)-2,5-diphenyl tetrazolium bromide) so-called purple formazan crystals develop in living and early apoptotic cells. Dead cells don't produce formazan crystals.
(§2) Different cell lines were tested. Unless indicated differently, A549 human lung epithelial cells (derived from lung carcinoma) and L929sA murine fibroblast cells were cultured in DMEM with 10% FCS, 100 U/ml penicillin and 100 μg/ml streptomycin. Unless indicated differently, the human multiple myeloma cell lines L363, U266 and MM1.S were cultured in RPMI 1640 with Glutamax-I, supplemented with 10% FCS, 100 U/ml penicillin and 100 μg/ml streptomycin. Cells were seeded at 5000 cells/well (for adherent A549 and L929sA cells) or at 10000 cells/well (for the multiple myeloma lines in suspension) in 96 well plates. Cells were incubated in the presence of the respective synephrine compounds or vehicle (EtOH; for control test) in a final volume of 0.2 ml for 24 or 48 hours at 37° C. Subsequently, 20 μl of MTT solution (5 mg/ml in phosphate-buffered saline) was added to each well. After 4 hours incubation at 37° C., 80 μl of the extraction buffer (10% SDS, 0.01 M HCl) was added. After overnight incubation at room temperature, the optical densities at 590 nm were measured. Results are illustrated in FIGS. 2 to 6 and are expressed as percentage of viable cells as compared to vehicle-treated controls.
(§3) The MTT test was further extended to include alternative synephrine derivatives and a range of multiple myeloma cell lines for which the results are illustrated by FIGS. 3A, 3B and 4A. Human multiple myeloma cell lines L363, U266 and MM1.S were cultured in RPMI 1640 with Glutamax-I, supplemented with 10% FCS, 100 U/ml penicillin and 100 μg/ml streptomycin. Cells were seeded at 10000 cells/well in 96 well plates. Cells were incubated in the presence of test compounds or vehicle in a final volume of 0.2 ml for 24 or 48 hours at 37° C. The test compounds included in the test were the synephrine derivatives CpdA, Naphth, Benz and Isobut, and DEX as a comparative example. Subsequently, 20 μl of MTT solution (5 mg/ml in phosphate-buffered saline) was added to each well. After 4 hours incubation at 37° C., 80 μl of the extraction buffer (10% SDS, 0.01 M HCl) was added. After 48 hours incubation at room temperature, the optical densities at 590 nm were measured. Results are expressed as percentage of viable cells as compared to vehicle-treated controls.

MCF7 breast cancer cells = conditions: 10^−6 M
Experimental: In further experiments, nylon arrayfilter hybridization experiments were performed. cDNA array analyses were carried out according to the instructions of the manufacturer (SuperArray Simplicity GEArray™ KIT) on the cDNA arrays cancer pathway finder and stress and toxicity array. Total RNA, obtained by the protocol as described herein above, was used as a template for [α−^33P]-cDNA probe synthesis using the following steps:
A second array hybridization experiment was performed on Human Stress and Toxicity Pathway Finder GEarray Q series. The same protocol was followed as for the array hybridization experiment on the Human Cancer Pathway Finder described herein above.

[1] = Serum ELISA of osteoclast and osteoblast markers in DBA/1 mice; conditions: 62.5 μg daily, 8 day treatment; FIG. 21A
Source text: DBA/1 mice—Male 8- to 12-wk-old DBA/1 mice were purchased from Janvier and housed following institutional guidelines. All animal procedures were approved by the institutional animal care and ethics committee. […] The human IL-6 and IL-8 cytoset were purchased from BioSource International, Inc. For the detection of TRAP5b in DBA/1 mice serum we used the Mouse TRAP Assay, purchased from Immunodiagnostic systems limited. The osteocalcin EIA kit was purchased from Biomedical Technologies, Inc. All assays were performed according to the manufacturer's instructions.

[2] = test system: B16BL6 melanoma, PG19 melanoma and Lewis Lung Carcinoma; test: In vivo melanoma model, subcutaneous tumors in mice; conditions: eight days of treatment with 200 μg; PBS-treated 1.51+/−0.13 g
Experimental: In vivo melanoma model • Cells of B16BL6 melanoma, PG19 melanoma and Lewis Lung Carcinoma are kept in culture in DMEM supplemented with fetal calf serum, antibiotics and L-glutamine. Cells are harvested, washed three times in LPS-free PBS, and brought to a density of 6×10^6/ml (B16BL6) or 20×10^6/ml (PG19, EL4 and LLC). 100 μl of the cell suspension is injected subcutaneously into shaven, right hind limbs of the mice. When the tumors reach a size of 50-70 mm^2, daily treatment is started with dexamethasone (DEX), hydrocortisone (HYDRO), compound A (CpdA) or its analogues (intraperitoneally (i.p.) or in drinking water). DEX, HYDRO are diluted in PBS; CpdA is diluted in 20% ethanol. The smaller and larger diameters of the tumor are measured daily with an electronic caliper. Tumor size index (TSI) is defined in mm^2 as (a)×(b), (a) being the longest diameter of the tumor and (b) the diameter perpendicular to (a). […] Each mouse receives daily either PBS or a specific dose of DEX, ranging from 5 μg to 200 μg. […]. […] Toxicity and efficacy of CpdA and analogues will be evaluated.

[3] = test system: multiple myeloma cells U266; test: MTT test, cell viability of U266 cells; format: cell-based, human; conditions: Homo sapiens, U-266; 10^−4M; serum-free medium; FIG. 2A; read-out: Cell killing / reduction of viability of U266 cells
Experimental: as §1, §2, §3

[4] = MTT test, cell viability of L929sA fibroblasts; format: cell-based, murine; conditions: mouse, L929sA fibroblast cells; 10^−4 M; 48 hours; FIG. 5B; read-out: Block of L929sA cell viability
Experimental: as §1, §2
In a further MTT test, the activity of the synephrine derivatives on the inhibition of cell viability of non-immune cells was measured. […] Tests were performed for 24 hours and for 48 hours. The results are illustrated by FIGS. 5A and 5B for L929 cells, and by FIGS. 6A and 6B for A549 cells. It was observed that CpdA at 10^−5 M blocked cell viability of L929sA and A549 for not more than 10%.

Levels of cyp1A1, FMO1, HMOX2, ATM, bcl2L1, casp1 (MCF7 breast cancer cells): increases levels
TRAP5b in mouse serum [1]: increase of TRAP5b in mouse serum
Compound: C[C@@H]1C[C@H]2[C@@H]3CCC4=CC(=O)C=C[C@]4(C)[C@@]3(F)[C@@H](O)C[C@]2(C)[C@@]1(O)C(=O)CO [DEX, dexamethasone, reference compound]
cytotoxicity at 100 µM (MM1.S cell line): 30%
Mean weight of tumors [2]: 0.59 ± 0.04 g
cytotoxicity at 100 µM [3]: 10%
cytotoxicity at 48 h [4]: 30%
